# Test results as given in patent US20230157950A1, “OROMUCOSAL FILM COMPOSITIONS COMPRISING EPINEPHRINE PARTICLES” (ReForm Therapeutics Ltd., priority 2021, published 2023).
# Settings: acetone, ethanol, methanol, isopropyl alcohol, alkaline water-based solvents, 25° C. and 45° C.
structure (smiles),measurement,setting,value
"CNC[C@H](O)c1ccc(O)c(O)c1 [Epinephrine base particles, Epinephrine base]",time for which size and structure of epinephrine particles is maintained in solvents/dispersants,,at least 6 hours
same,solubility of epinephrine particles in the selected solvents/dispersants,"up to 6 hours, SEM",none or very limited solubility
